# Like-named read-outs stand apart in the source and are kept apart here.
# Molecular target: T1, recombinant rat FAAH (rFAAH) (Rattus norvegicus, UniProt P97612)
# T1 construct: The truncated rat FAAH (rFAAH) was expressed in E. coli and purified; made in house; host or cells: Escherichia coli
# T1 sequence (P97612 30-579 limits assumed): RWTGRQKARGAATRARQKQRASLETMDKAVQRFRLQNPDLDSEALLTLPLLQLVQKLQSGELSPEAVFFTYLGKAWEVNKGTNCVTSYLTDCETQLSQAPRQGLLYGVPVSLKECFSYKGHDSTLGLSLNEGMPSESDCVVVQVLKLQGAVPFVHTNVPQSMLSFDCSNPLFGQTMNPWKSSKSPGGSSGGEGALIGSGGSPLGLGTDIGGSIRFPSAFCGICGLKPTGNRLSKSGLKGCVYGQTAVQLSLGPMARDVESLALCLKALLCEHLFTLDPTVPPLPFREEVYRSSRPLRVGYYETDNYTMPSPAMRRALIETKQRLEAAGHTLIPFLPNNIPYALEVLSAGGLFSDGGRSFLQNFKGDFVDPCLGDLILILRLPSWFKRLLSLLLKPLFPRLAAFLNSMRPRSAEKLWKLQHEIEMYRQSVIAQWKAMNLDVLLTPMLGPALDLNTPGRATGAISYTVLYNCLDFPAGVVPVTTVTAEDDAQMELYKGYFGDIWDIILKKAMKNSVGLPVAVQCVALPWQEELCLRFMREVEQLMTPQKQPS
# Test: Enzyme assay: inhibition of purified recombinant rat FAAH, 14C-oleamide hydrolysis, Ki by Dixon plot
# Format: biochemical
# Procedure: Enzyme assays were performed at 20-23° C. with purified recombinant rat FAAH expressed in Escherichia coli or with solubilized COS-7 membrane extracts from cells transiently transfected with human FAAH cDNA (where specifically indicated) in a buffer of 125 mM Tris/1 mM EDTA/0.2% glycerol/0.02% Triton X-100/0.4 mM Hepes, pH 9.0.
# ^14C-labeled oleamide was prepared from ^14C-labeled oleic acid. The truncated rat FAAH (rFAAH) was expressed in E. coli and purified. The purified recombinant rFAAH was used in the inhibition assays unless otherwise indicated. The full-length human FAAH (hFAAH) was expressed in COS-7 cells as described, and the lysate of hFAAH-transfected COS-7 cells was used in the inhibition assays where explicitly indicated.
# The inhibition assays were performed as follows. […] The enzyme reaction was terminated by transferring 20 μL of the reaction mixture to 500 μL of 0.1 N HCl at three different time points. The ^14C-labeled oleamide (substrate) and oleic acid (product) were extracted with EtOAc and analyzed by TLC as detailed. The Ki of the inhibitor was calculated using a Dixon plot as described (standard deviations are provided in the Supporting Information tables).
# [1] = Ki, Table 2, (R)-enantiomer, 1,2,3,4-tetrahydronaphthalene C2 acyl side chain
# [2] = Ki, Table 2, (S)-enantiomer, 1,2,3,4-tetrahydronaphthalene C2 acyl side chain
# [3] = Ki, Table 3, (R)-enantiomer, indane C2 acyl side chain
# [4] = Ki, Table 4, (R)-enantiomer, additional FAAH inhibitors
structure (smiles),measurement,setting,value
"COC(=O)c1cnc(C(=O)C2CCc3cc(-c4ccccc4)ccc3C2)o1 (single isomer, unassigned) [(R)-4, Methyl 2-(6-Phenyl-1,2,3,4-tetrahydronaphthalene-2-carbonyl)oxazole-5-carboxylate]",Ki,[1],1.4 µM
"COC(=O)c1cnc(C(=O)C2CCc3cc(-c4ccccc4)ccc3C2)o1 (single isomer, unassigned) [(S)-4, Methyl 2-(6-Phenyl-1,2,3,4-tetrahydronaphthalene-2-carbonyl)oxazole-5-carboxylate]",Ki,[2],0.055 µM
"COC(=O)c1cccc(-c2cnc(C(=O)C3Cc4ccc(Oc5ccccc5)cc4C3)o2)n1 (single isomer, unassigned) [(R)-28]",Ki,[3],0.79 µM
"O=C(c1ncco1)C1CCc2cc(-c3ccccc3)ccc2C1 (single isomer, unassigned) [(S)-3, Oxazol-2-yl(6-phenyl-1,2,3,4-tetrahydronaphthalen-2-yl)methanone]",Ki,[2],0.057 µM
"COC(=O)c1nnc(C(=O)C2CCc3cc(Oc4ccccc4)ccc3C2)o1 (single isomer, unassigned) [(R)-35, Methyl 5-(6-Phenoxy-1,2,3,4-tetrahydronaphthalene-2-carbonyl)-[1,3,4]oxadiazole-2-carboxylate]",Ki,[4],0.0016 µM
"O=C(c1ncc(-c2ccccn2)o1)C1CCc2cc(-c3ccccc3)ccc2C1 (single isomer, unassigned) [(S)-6, (6-Phenyl-1,2,4-tetrahydronaphthalen-2-yl)(5-(pyridin-2-yl)oxazol-2-yl)methanone]",Ki,[2],0.0072 µM
"COC(=O)c1cnc(C(=O)C2CCc3cc(Oc4ccccc4)ccc3C2)o1 (single isomer, unassigned) [(R)-10, Methyl 2-(6-Phenoxy-1,2,3,4-tetrahydronaphthalene-2-carbonyl)oxazole-5-carboxylate]",Ki,[1],0.059 µM
"O=C(c1nnco1)C1CCc2cc(Oc3ccccc3)ccc2C1 (single isomer, unassigned) [(R)-34, (1,3,4-Oxadlazol-2-yl)(6-phenoxy-1,2,3,4-tetrahydronaphthalen-2-yl)methanone]",Ki,[4],0.0014 µM
"O=C(O)c1cccc(-c2cnc(C(=O)C3Cc4ccc(OCc5ccccc5)cc4C3)o2)n1 (single isomer, unassigned) [(R)-33, 6-(2-(5-(Benzyloxy)indane-2-carbonyl)oxazol-5-yl)picolinic acid]",Ki,[3],0.66 µM
"O=C(c1ncc(-c2ccccn2)o1)C1CCc2ccccc2C1 (single isomer, unassigned) [(R)-38, (5-(Pyridin-2-yl)oxazol-2-yl)(1,2,3,4-tetrahydronaphthalen-2-yl)methanone]",Ki,[4],3.2 µM
"O=C(c1ncco1)C1Cc2ccc(-c3ccccc3)cc2C1 (single isomer, unassigned) [(S)-22, Oxazol-2-yl(5-phenylindan-2-yl)methanone]",Ki,"Ki, Table 3, tentatively assigned (S)-enantiomer, indane C2 acyl side chain",0.027 µM
"O=C(O)c1cccc(-c2cnc(C(=O)C3CCc4cc(-c5ccccc5)ccc4C3)o2)n1 (single isomer, unassigned) [(R)-8, 6-(2-(6-Phenyl-1,2,3,4-tetrahydronaphthalene-2-carbonyl)oxazol-5-yl)picolinic acid]",Ki,[1],0.5 µM
"O=C(c1ncco1)C1CCc2ccccc2C1 (single isomer, unassigned) [(R)-37, Oxazol-2-yl(1,2,3,4-tetrahydronaphthalen-2-yl)methanone]",Ki,[4],12 µM
"COC(=O)c1cccc(-c2cnc(C(=O)C3CCc4cc(-c5ccccc5)ccc4C3)o2)n1 (single isomer, unassigned) [(R)-7, Methyl 6-(2-(6-Phenyl-1,2,3,4-tetrahydronaphthalene-2-carbonyl)oxazol-5-yl)picolinate]",Ki,[1],0.7 µM
"O=C(O)c1cccc(-c2cnc(C(=O)C3CCc4cc(OCc5ccccc5)ccc4C3)o2)n1 (single isomer, unassigned) [(R)-20, 6-(2-(6-(Benzyloxy)-1,2,3,4-tetrahydronaphthalene-2-carbonyl)oxazol-5-yl)picolinic acid]",Ki,[1],0.74 µM
"O=C(c1ncc(-c2ccccn2)o1)C1Cc2ccccc2C1 [Compound 40, (Indan-2-yl)(5-(pyridin-2-yl)oxazol-2-yl)methanone]",Ki relative to the FAAH inhibitor lacking the conformational constraints (Ki=200 nM),,5 fold
same,Ki,read-out: Ki,1.1 µM

# Source: US9504675B2, “Alpha-ketoheterocycles and methods of making and using” (The Scripps Research Institute, priority 2011, dated 2016)
